# Results as given in patent US11927590B2, “Methods and systems for screening therapeutic compositions for treating age-related macular degeneration” (ARIZONA BOARD OF REGENTS ON BEHALF OF THE UNIVERSITY OF …, priority 2020, dated 2024).
# Test system: retinal pigment epithelial (RPE) cells
# Test: RPE exosome release
# Assay type: cell-based
# Conditions: RPE cells incubated in media (DMEM) plus L-DOPA versus media alone (FIG. 3A)
# From the text: Exosomes released from retinal pigment epithelial (RPE) cells can be isolated. […] Cells and cell debris are removed and exosomes are then purified. Note the present invention is not limited to this particular method of exosome isolation. In certain embodiments of the present invention, exosomes are not isolated for the measurement of levels of exosomes released from RPE cells. […] FIG. 3B illustrates GPR143 exosome release and its inhibition by L-DOPA. FIG. 4A and FIG. 4B show RPE exosome release studies in response to 30 minute treatments with 1 μM dopamine (FIG. 4A), 1 nM Dopamine 2 receptor (D2R) agonist (bromocriptine, FIG. 4B), and 1 nM Dopamine 2 receptor ([…]) antagonist (raclopride, FIG. 4B).
smiles,measurement,value
N[C@@H](Cc1ccc(O)c(O)c1)C(=O)O [L-DOPA],exosome release from RPE cells,significant reduction in exosome release
